pIC50: −log10 of the molar value.
Target: T1, USP7 (Homo sapiens, UniProt Q93009)
T1 construct: USP7, construct USP7 (208-1102) 6*His, Viva Biotech; 6xHis (C); purchased Viva Biotech
Assay: USP7 Assay A (Ubitquin-Rhodamine 110 Assay)
Format: biochemical
Settings: USP7 activity in USP7 assay A and B (table does not say which assay per compound); read-out: USP7_IC50
Outline: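 Enzyme and compound sat together for 30 min before Ub-Rh110 was added, in buffer of 20 mM Tris-HCl (pH 8.0), 1 mM GSH, 0.03% BGG and 0.01% Triton X-100.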

T1 sequence (Q93009 208-1102): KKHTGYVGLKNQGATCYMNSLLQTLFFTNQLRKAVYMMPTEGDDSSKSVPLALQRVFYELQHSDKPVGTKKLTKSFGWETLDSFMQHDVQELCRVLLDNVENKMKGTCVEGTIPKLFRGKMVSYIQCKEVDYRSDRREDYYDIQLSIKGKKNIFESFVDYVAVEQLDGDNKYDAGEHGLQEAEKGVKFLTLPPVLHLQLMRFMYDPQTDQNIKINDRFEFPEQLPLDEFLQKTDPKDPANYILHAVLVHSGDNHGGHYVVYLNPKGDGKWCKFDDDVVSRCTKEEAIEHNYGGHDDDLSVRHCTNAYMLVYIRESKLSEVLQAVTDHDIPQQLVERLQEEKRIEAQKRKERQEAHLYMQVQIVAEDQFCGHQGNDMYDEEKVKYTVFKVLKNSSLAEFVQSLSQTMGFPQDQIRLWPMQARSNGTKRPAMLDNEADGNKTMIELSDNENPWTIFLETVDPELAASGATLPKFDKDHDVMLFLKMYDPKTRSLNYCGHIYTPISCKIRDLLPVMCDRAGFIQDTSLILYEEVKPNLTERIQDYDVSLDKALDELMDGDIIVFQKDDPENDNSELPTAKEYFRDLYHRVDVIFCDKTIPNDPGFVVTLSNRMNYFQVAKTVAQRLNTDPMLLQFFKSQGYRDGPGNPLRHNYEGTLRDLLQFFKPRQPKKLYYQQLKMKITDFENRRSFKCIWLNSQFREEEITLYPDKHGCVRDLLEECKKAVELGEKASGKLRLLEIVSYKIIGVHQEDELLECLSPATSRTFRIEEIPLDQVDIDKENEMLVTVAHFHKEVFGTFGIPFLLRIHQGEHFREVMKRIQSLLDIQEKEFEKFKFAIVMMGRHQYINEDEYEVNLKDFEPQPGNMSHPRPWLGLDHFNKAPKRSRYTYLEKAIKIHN

Compared with `CC1(C(=O)N2CCC(O)(Cn3cnc4c(cnn4-c4ccc(N5CCC(C#N)CC5)cc4)c3=O)CC2)CC1` [Compound I-1752], `C[C@H]1CN(c2ccc(-n3ncc4c(=O)n(CC5(O)CCN(C(=O)C6(C)CC6)CC5)cnc43)cc2)CCN1C` [Compound I-1639] is higher in pIC50: 6.00 to 6.70 for the first, greater than 6.70 for the second.

`Cn1ccc(NC2CCC(C(=O)N3CCC(O)(Cn4cnc5c(ccn5-c5ccc(F)cc5)c4=O)CC3)CC2)n1` (stereo not shown) [Compound I-1041] and `O=C(c1cnn(C2CC2)c1)N1CCC(O)(Cn2cnc3c(ccn3-c3ccc(F)cc3)c2=O)CC1` [Compound I-1079] fall in the same range of pIC50: 6.00 to 6.70 for the first, 6.00 to 6.70 for the second.

`COCCN1CCN(c2cccc(-n3ncc4c(=O)n(CC5(O)CCN(C(=O)C6(C)CC6)CC5)cnc43)c2)CC1` [Compound I-1750] and `CC1(C(=O)N2CCC(O)(Cn3cnc4c(cnn4-c4cccc(-n5ccc(F)n5)c4)c3=O)CC2)CC1` [Compound I-1042] fall in the same range of pIC50: 6.00 to 6.70 for the first, 6.00 to 6.70 for the second.

`CN1Cc2cn(-c3ccc(C(=O)N4CCC(O)(Cn5cnc6c(cnn6-c6ccc(F)cc6)c5=O)CC4)cc3)nc2C1` [Compound I-1001] and `O=C(c1ccc(F)cc1)N1CCC(O)(Cn2cnc3c(cnn3-c3ccc(-n4cc5c(n4)CCOC5)cc3)c2=O)CC1` [Compound I-976] fall in the same range of pIC50: 5.00 to 6.00 for the first, 5.00 to 6.00 for the second.

Compared with `Cn1nccc1OC1CCC(C(=O)N2CCC(O)(Cn3cnc4c(cnn4-c4ccc(F)cc4)c3=O)CC2)CC1` (stereo not shown) [Compound I-1114], `O=C(C1CCC(Oc2cnccn2)CC1)N1CCC(O)(Cn2cnc3c(cnn3-c3ccc(F)cc3)c2=O)CC1` (stereo not shown) [Compound I-1113] is higher in pIC50: 5.00 to 6.00 for the first, greater than 6.70 for the second. The second is the more potent here.

`O=C(C1CC1)N1CCC(O)(Cn2cnc3c(cnn3-c3ccc(-c4ccc(N5CC[C@H](O)C5)nc4)cc3)c2=O)CC1` [Compound I-686] and `Cc1ccc(-c2ccc(-n3ncc4c(=O)n(CC5(O)CCN(C(=O)C6CC6)CC5)cnc43)cc2)nc1` [Compound I-1726] fall in the same range of pIC50: 6.00 to 6.70 for the first, 6.00 to 6.70 for the second.

First: O=C(c1cnc(C2CC2)o1)N1CCC(O)(Cn2cnc3c(cnn3-c3ccc(OC4CCC(F)(F)CC4)cc3)c2=O)CC1 [Compound I-817]
Second: O=C(c1cnc(C2CC2)o1)N1CCC(O)(Cn2cnc3c(cnn3-c3ccc(C4CCC4)cc3)c2=O)CC1 [Compound I-847]
The pIC50 of the first is higher: greater than 6.70 for the first, 6.00 to 6.70 for the second. The first is the more potent here.

`CC1(C(=O)N2CCC(O)(Cn3cnc4c(cnn4-c4ccc(N5CC(C6CCOCC6)C5)cc4)c3=O)CC2)CC1` [Compound I-1570] and `CC1(C(=O)N2CCC(O)(Cn3cnc4c(cnn4-c4ccc(N5CC(C(C)(C)O)C5)cc4)c3=O)CC2)CC1` [Compound I-1674] fall in the same range of pIC50: 6.00 to 6.70 for the first, 6.00 to 6.70 for the second.

`O=C(C1CCC(Oc2cccc(F)n2)CC1)N1CCC(O)(Cn2cnc3c(cnn3-c3ccccc3)c2=O)CC1` (stereo not shown) [Compound I-742] and `O=C(C1CCC(Oc2ccc(F)cn2)CC1)N1CCC(O)(Cn2cnc3c(cnn3-c3ccccc3)c2=O)CC1` (stereo not shown) [Compound I-744] fall in the same range of pIC50: 6.00 to 6.70 for the first, 6.00 to 6.70 for the second.

First: CN1CC(O)(COc2ccc(-n3ncc4c(=O)n(CC5(O)CCN(C(=O)c6ccc(F)cc6)CC5)cnc43)cc2)C1 [Compound I-816]
Second: Cc1ccc(C(=O)N2CCC(O)(Cn3cnc4c(cnn4-c4ccc(-n5cc(OCCO)cn5)cc4)c3=O)CC2)cc1 [Compound I-672]
The pIC50 of the first is higher: greater than 6.70 for the first, 6.00 to 6.70 for the second. The first is the more potent here.

Compared with `O=C(C[C@H](C(F)F)n1cccn1)N1CCC(O)(Cn2cnc3c(cnn3-c3ccc(-c4ccccc4)cc3)c2=O)CC1` [Compound I-645], `O=C(C[C@H](C(F)F)n1ccc(Cl)n1)N1CCC(O)(Cn2cnc3c(cnn3-c3ccc(F)cc3)c2=O)CC1` [Compound I-731] is higher in pIC50: 6.00 to 6.70 for the first, greater than 6.70 for the second. The second is the more potent here.

`Cc1cc(OC2CCN(C(=O)N3CCC(O)(Cn4cnc5c(cnn5-c5ccc(F)cc5)c4=O)CC3)CC2)no1` [Compound I-922] and `O=C(N1CCC(O)(Cn2cnc3c(cnn3-c3ccc(F)cc3)c2=O)CC1)N1CC[C@H]1Cc1ccccc1` [Compound I-760] fall in the same range of pIC50: 5.00 to 6.00 for the first, 5.00 to 6.00 for the second.

First: C[C@@H](CC(=O)N1CCC(O)(Cn2cnc3c(cnn3-c3ccc(N4CC[C@@](C)(O)C4)cc3)c2=O)CC1)n1cccn1 [Compound I-838]
Second: O=C(c1cnn(C2CC2)c1)N1CCC(O)(Cn2cnc3c(cnn3-c3ccc(Cl)cc3)c2=O)CC1 [Compound I-1095]
The pIC50 of the first is lower: 5.00 to 6.00 for the first, 6.00 to 6.70 for the second.

First: O=C(C1CC1)N1CCC(O)(Cn2cnc3c(cnn3-c3ccc(-c4cccc5oncc45)cc3)c2=O)CC1 [Compound I-1738]
Second: O=c1c2cnn(-c3ccccc3)c2ncn1CC1(O)CCN(C(=O)[C@H]2CC[C@H](Nc3cccnc3F)CC2)CC1 [Compound I-1039b, Anti-5-((1-(4-((2-fluoropyridin-3-yl)amino)cyclohexane-1-carbonyl)-4-hydroxypiperidin-4-yl)methyl)-1-phenyl-1,5-dihydro-4H-pyrazolo[3,4-d]pyrimidin-4-one]
The pIC50 of the first is lower: 5.00 to 6.00 for the first, greater than 6.70 for the second.

First: O=C(c1cccn1Cc1cccc(F)c1)N1CCC(O)(Cn2cnc3c(cnn3-c3ccc(F)cc3)c2=O)CC1 [Compound I-560]
Second: Cc1ncc(C(=O)N2CCC(O)(Cn3cnc4c(cnn4-c4ccc(-n5cc(Cl)cn5)cc4)c3=O)CC2)o1 [Compound I-1733]
The pIC50 of the first is lower: 6.00 to 6.70 for the first, greater than 6.70 for the second. The second is the more potent here.

For `CC1(COc2ccc(-n3ncc4c(=O)n(CC5(O)CCN(C(=O)C6(C)CC6)CC5)cnc43)cc2)COC1` [Compound I-1118], the pIC50 was greater than 6.70.

Same assay, conditions: USP7 assay A and B (table does not say which assay per compound); Ubiquitin-Rhodamine 110 substrate; read-out: USP7_IC50

With `CC(C)n1ncc2c(=O)n(CC3(O)CCN(C(=O)C[C@@H](C)c4ccccc4)CC3)cnc21` [Compound I-61] the pIC50 was 6.00 to 6.70.

Same assay, conditions: USP7 assay A and B (table does not say which assay per compound); read-out: USP7_IC50

`O=C(C1CC1)N1CCC(O)(Cn2cnc3c(cnn3-c3ccc(-c4cccc(N5CCCC5)c4)cc3)c2=O)CC1` [Compound I-399] and `O=C(C1CC1)N1CCC(O)(Cn2cnc3c(cnn3-c3ccc(Nc4ccc(N5CCOCC5)cc4)cc3)c2=O)CC1` [Compound I-1234] fall in the same range of pIC50: 5.00 to 6.00 for the first, 5.00 to 6.00 for the second.

`O=C(C[C@@H](c1ccccc1)C(F)F)N1CCC(O)(Cn2cnc3c(cnn3-c3ccccc3)c2=O)CC1` [Compound I-1103] and `O=C(CC(c1ccccc1)C(F)F)N1CCC(O)(Cn2cnc3c(cnn3-c3ccccc3)c2=O)CC1` (stereo not shown) [Compound I-1102] cannot be ordered by pIC50: greater than 6.70 for the first, greater than 6.70 for the second.

`O=C(c1ccncc1)N1CCC(O)(Cn2cnc3c(cnn3-c3ccccc3)c2=O)CC1` [Compound I-191] and `O=C(c1ccc(Cl)cc1)N1CCC(O)(Cn2cnc3c(cnn3-c3ccccc3)c2=O)CC1` [Compound I-280] fall in the same range of pIC50: 5.00 to 6.00 for the first, 5.00 to 6.00 for the second.

First: CN1CCC(c2ccc(C(=O)N3CCC(O)(Cn4cnc5c(cnn5-c5ccc(F)cc5)c4=O)CC3)cc2)CC1 [Compound I-605]
Second: Cc1ccc(-n2ncc3c(=O)n(CC4(O)CCN(C(=O)c5ccc(OC6CCC(O)CC6)cc5)CC4)cnc32)cc1 (stereo not shown) [Compound I-1141, 5-((4-Hydroxy-1-(4-(4-hydroxycyclohexyloxy)benzoyl)piperidin-4-yl)methyl)-1-p-tolyl-1H-pyrazolo[3,4-d]pyrimidin-4 (5H)-one]
The pIC50 of the first is lower: less than 5.00 for the first, 5.00 to 6.00 for the second.

`CN(C)C(=O)N1CCC(O)(Cn2cnc3c(cnn3-c3ccc(N4CCNCC4)cc3)c2=O)CC1` [Compound I-967] and `CC(C)c1ccc(-n2ncc3c(=O)n(CC4(O)CCN(C(=O)C5CC5)CC4)cnc32)cc1` [Compound I-27] fall in the same range of pIC50: 5.00 to 6.00 for the first, 5.00 to 6.00 for the second.

`O=C(c1ccccc1)N1CCC(O)(Cn2cnc3c(cnn3-c3ccc(-c4ccccc4)c(CO)c3)c2=O)CC1` [Compound I-665] and `O=C(c1ccc(F)cc1)N1CCC(O)(Cn2cnc3c(cnn3-c3ccc(F)c(CO)c3)c2=O)CC1` [Compound I-640] fall in the same range of pIC50: 5.00 to 6.00 for the first, 5.00 to 6.00 for the second.

`O=C(c1ccc(-n2nccn2)cc1)N1CCC(O)(Cn2cnc3c(cnn3-c3ccc(Cl)cc3)c2=O)CC1` [Compound I-1129] and `O=C(c1ccc(F)cc1)N1CCC(O)(Cn2cnc3c(cnn3-c3cnn(-c4ccccc4)c3)c2=O)CC1` [Compound I-704] fall in the same range of pIC50: 5.00 to 6.00 for the first, 5.00 to 6.00 for the second.

`O=C(NCCO)c1cccc(-c2cccc(-n3ncc4c(=O)n(CC5(O)CCN(C(=O)C6CC6)CC5)cnc43)c2)c1` [Compound I-409] and `Nc1cccc(-n2ncc3c(=O)n(CC4(O)CCN(C(=O)C5CC5)CC4)cnc32)c1` [Compound I-964] fall in the same range of pIC50: 5.00 to 6.00 for the first, 5.00 to 6.00 for the second.

`C[C@H](CC(=O)N1CCC(O)(Cn2cnc3c(cnn3-c3ccc(F)cc3)c2=O)CC1)n1cc2c(n1)CCC2` [Compound I-520] and `C[C@@H](CC(=O)N1CCC(O)(Cn2cnc3c(cnn3-c3ccc(-c4ccc(F)cc4)cc3)c2=O)CC1)n1cccn1` [Compound I-654] cannot be ordered by pIC50: less than 5.00 for the first, less than 5.00 for the second.

`C[C@H](CC(=O)N1CCC(O)(Cn2cnc3c(cnn3-c3cccc(C(F)(F)F)c3)c2=O)CC1)c1ccccc1` [Compound I-67] and `Cc1ccc(-n2ncc3c(=O)n(CC4(O)CCN(C(=O)C[C@@H](C)c5ccccc5)CC4)cnc32)cc1` [Compound I-68] cannot be ordered by pIC50: greater than 6.70 for the first, greater than 6.70 for the second.

`C[C@](O)(c1ccc(C(=O)N2CCC(O)(Cn3cnc4c(cnn4-c4ccc(F)cc4)c3=O)CC2)cc1)C(F)(F)F` (single isomer, unassigned) [Compound I-528] and `Cc1ccc(-n2ncc3c(=O)n(CC4(O)CCN(C(=O)C[C@H](c5ccccc5)C(F)(F)F)CC4)cnc32)cc1` [Compound I-144] fall in the same range of pIC50: 5.00 to 6.00 for the first, 5.00 to 6.00 for the second.

`O=C(N[C@H]1CNCC1F)N1CCC(O)(Cn2cnc3c(cnn3-c3ccc(-c4ccccc4)cc3)c2=O)CC1` (stereo partly shown) [Compound I-664] and `O=C(N1CCC(O)(Cn2cnc3c(cnn3-c3ccccc3)c2=O)CC1)C1(C(F)(F)F)CC1` [Compound I-277] fall in the same range of pIC50: 5.00 to 6.00 for the first, 5.00 to 6.00 for the second.

`CS(=O)(=O)Nc1cccc(-n2ncc3c(=O)n(CC4(O)CCN(C(=O)C5CC5)CC4)cnc32)c1` [Compound I-1417] and `O=C(C1CC1)N1CCC(O)(Cn2cnc3c(cnn3-c3cccnc3)c2=O)CC1` [Compound I-30] fall in the same range of pIC50: 5.00 to 6.00 for the first, 5.00 to 6.00 for the second.

`CNC(=O)Nc1ccc(-n2ncc3c(=O)n(CC4(O)CCN(C(=O)C5CC5)CC4)cnc32)cc1` [Compound I-506] and `CN1CCN(c2cc(-n3ncc4c(=O)n(CC5(O)CCN(C(=O)c6ccccc6)CC5)cnc43)ccc2F)CC1` [Compound I-634] fall in the same range of pIC50: 5.00 to 6.00 for the first, 5.00 to 6.00 for the second.

`CN(Cc1ccccc1)c1ccc(C(=O)N2CCC(O)(Cn3cnc4c(cnn4C)c3=O)CC2)cc1` [Compound I-119] showed a pIC50 of 6.00 to 6.70.
